According to patent US8772266B2, “Fungicide pyrazole carboxamides derivates” (Bayer Cropscience AG, priority 2009, dated 2014):

Assay: logP by HPLC on reversed-phase column (EEC Directive 79/831 Annex V.A8)
Conditions: HPLC on reversed-phase column (C 18), 40° C., 0.1% aqueous formic acid and acetonitrile, linear gradient 10% to 90% acetonitrile

logP	Compound
3.55	Cc1cccc2c1CCC2N(C(=O)c1c(C(F)F)nn(C)c1F)C1CC1 (racemic) [Example 102]
4.26	CC(c1cc(Br)cc(Br)c1)N(C(=O)c1c(C(F)F)nn(C)c1F)C1CC1 (racemic) [Example 106]

Same assay, conditions: HPLC, reversed-phase column (C 18), 40° C., 0.1% aqueous formic acid and acetonitrile, linear gradient 10% to 90% acetonitrile

Compound	logP
Cn1nc(C(F)F)c(C(=S)N(Cc2ncc(C(F)(F)F)cc2Cl)C2CC2)c1F [Example 7]	4.11
Cn1nc(C(F)F)c(C(=O)N(Cc2c(Cl)cccc2I)C2CC2)c1F [Example 19]	3.58
Cn1nc(C(F)F)c(C(=O)N(Cc2cc(Br)ccc2I)C2CC2)c1F [Example 21]	3.94
CC(C)Cc1cc(Cl)ccc1CN(C(=O)c1c(C(F)F)nn(C)c1F)C1CC1 [Example 31]	4.59
CC(C)c1ccccc1CN(C(=O)c1c(C(F)F)nn(C)c1Cl)C1CC1 [Example 34]	3.81
Cn1nc(C(F)F)c(C(=O)N(Cc2ccccc2I)C2CC2)c1Cl [Example 35]	3.6
Cn1nc(C(F)F)c(C(=O)N(Cc2ccccc2[Si](C)(C)C)C2CC2)c1Cl [Example 37]	4.49
CC(c1ccccc1C(F)(F)F)N(C(=O)c1c(C(F)F)nn(C)c1Cl)C1CC1 (stereo not drawn) [Example 55]	3.64
Cn1nc(C(F)F)c(C(=O)N(Cc2ccccc2C(F)(F)F)C2CC2)c1Cl [Example 56]	3.58
Cn1nc(C(F)F)c(C(=O)N(Cc2ncc(C(F)(F)F)cc2Cl)C2CC2)c1Cl [Example 57]	3.55
CC(c1ncc(Cl)cc1Cl)N(C(=O)c1c(C(F)F)nn(C)c1Cl)C1CC1 (stereo not drawn) [Example 58]	3.69
Cn1nc(C(F)F)c(C(=O)N(Cc2ccc(Cl)cc2Cl)C2CC2)c1Cl [Example 59]	3.89
CC(c1ccc(Oc2ccccc2)cc1)N(C(=O)c1c(C(F)F)nn(C)c1Cl)C1CC1 (stereo not drawn) [Example 60]	4.31
CC(c1ccc(Oc2ccccc2)cc1)N(C(=O)c1c(C(F)F)nn(C)c1F)C1CC1 (stereo not drawn) [Example 65]	4.14
CC(c1ccccc1C(F)(F)F)N(C(=O)c1c(C(F)F)nn(C)c1F)C1CC1 (stereo not drawn) [Example 66]	3.42
Cc1cc(C)c2c(c1)C(N(C(=O)c1c(C(F)F)nn(C)c1F)C1CC1)CCC2 (stereo not drawn) [Example 74]	4.25
Cc1cc(Br)c(CN(C(=O)c2c(C(F)F)nn(C)c2F)C2CC2)cc1F [Example 75]	3.73
Cc1cc(Cl)c(CN(C(=O)c2c(C(F)F)nn(C)c2F)C2CC2)cc1C [Example 79]	3.85
Cn1nc(C(F)F)c(C(=O)N(Cc2cc(Br)c3c(c2Br)OCO3)C2CC2)c1F [Example 87]	3.44

Further lines, results first:

logP	Compound
3.94	Cn1nc(C(F)F)c(C(=O)N(Cc2cccc(-c3ccccc3)c2)C2CC2)c1Cl [Example 67]
4.2	CCC(c1ccc(Cl)cc1Cl)N(C(=O)c1c(C(F)F)nn(C)c1F)C1CC1 (stereo not drawn) [Example 69]
4.41	CCC(c1cc(Cl)cc(Cl)c1)N(C(=O)c1c(C(F)F)nn(C)c1F)C1CC1 (stereo not drawn) [Example 71]
4.06	Cn1nc(C(F)F)c(C(=O)N(Cc2ccccc2C(C)(C)C)C2CC2)c1F [Example 76]
4.23	CC(c1ccc(C(F)(F)c2ccccc2)cc1)N(C(=O)c1c(C(F)F)nn(C)c1F)C1CC1 (stereo not drawn) [Example 77]
4.15	CC(c1cccc(C(F)(F)c2ccccc2)c1)N(C(=O)c1c(C(F)F)nn(C)c1F)C1CC1 (stereo not drawn) [Example 78]
3.87	Cn1nc(C(F)F)c(C(=O)N(C2CC2)C2CC(C)(C)c3ccccc32)c1F (stereo not drawn) [Example 85]
2.84	Cn1nc(C(F)F)c(C(=O)N(C2CC2)C2CCOc3ccccc32)c1F (stereo not drawn) [Example 86]
4.01	CCc1cccc(CC)c1CN(C(=O)c1c(C(F)F)nn(C)c1F)C1CC1 [Example 88]
3.6	CC(c1ccccc1OC(F)(F)F)N(C(=O)c1c(C(F)F)nn(C)c1F)C1CC1 (stereo not drawn) [Example 91]
3.51	Cn1nc(C(F)F)c(C(=O)N(Cc2c(Br)cccc2Br)C2CC2)c1F [Example 92]
4.8	CCCCC(c1ccc(C(F)(F)F)cc1)N(C(=O)c1c(C(F)F)nn(C)c1F)C1CC1 (stereo not drawn) [Example 93]
